For one test, the system named is Neutrophil LTB4. The experiment in a line: Neutrophil LTB4 assay (calcium ionophore challenge, EIA). As to conditions: Neutrophil; test concentration of 5 μM; human neutrophils, calcium ionophore 1 μM; read-out: LTB4 percent inhibition. It is filed as cell-based. As for the experimental part:
Neutrophils purified from human blood were resuspended in HBSS buffer containing calcium and magnesium to a cell density of 1×10^6/mL. Purified neutrophils were then incubated with test compounds at a test concentration of 5 μM for 15 min at 37° C. Following incubation, the cells were challenged with calcium ionophore (1 μM final) for 15 minutes at 37° C. Negative control wells were incubated with equal volume of vehicle. The reaction was stopped by transferring the plate to ice for 5 minutes. The plate was centrifuged at 1500 RPM for 5 min at 4° C. LTB4 was calculated in cell free supernatants by EIA (Assay Design Inc).

Test [1] concerns TXB2 Released by Human Platelets. The experiment in a line: Ionophore and arachidonic acid induced TXB2 released by human platelets (EIA). It counts as cell-based. As to conditions: human platelet-rich plasma; for IC50: challenge with calcium ionophore (10 μM) or arachidonic acid (50 μM); for inhibition at 1 µM: test concentration of 1 μM, calcium ionophore or arachidonic acid challenge, read-out: TXB2 percent inhibition. As for the experimental part: Ionophore and Arachidonic Acid Induced TXB2 Released by Human Platelets
The plate was incubated for 15 minutes at 37° C. Following incubation, platelets were challenged with calcium ionophore (final 10 μM) or arachidonic acid (AA) (final 50 μM) and the plate was further incubated at 37° C. for 15 min. The plate was transferred to an ice bed for 5 min in order to stop the reaction. Supernatants were assayed for TXB2 production by EIA (Assay Design Inc) after diluting with assay buffer (Assay Design Inc).

Each structure is given as a SMILES string.

As a reminder, the inhibition is the change of the read-out against control, counted positive when it falls. The term IC50 denotes the midpoint of a concentration-inhibition curve. As for `O=c1cc(Cl)sn1Cc1cccc2ccccc12` [Cpd 1, 5-chloro-2-naphthalen-1-ylmethyl-isothiazol-3-one], in the test with Neutrophil LTB4, the inhibition at 5 µM came out at 99%. Moreover, the IC50 in test [1] came to 3000 nM.
`O=c1cc(Cl)sn1C1CCc2ccccc21` (centres unmarked) [Cpd 3, 5-chloro-2-indan-1-yl-isothiazol-3-one]: the inhibition at 5 µM in the test with Neutrophil LTB4 was found to be 86%. Also, the half-maximal inhibitory concentration (IC50) in test [1] amounted to 900 nM.
For `O=c1cc(Cl)sn1CC1CCCc2ccccc21` (centres unmarked) [Cpd 4, 5-chloro-2-(1,2,3,4-tetrahydro-naphthalen-1-ylmethyl)-isothiazol-3-one], in the test with Neutrophil LTB4, the inhibition at 5 µM is 100%. The IC50 in test [1] was 3300 nM.
In the same order, the values of `CC(c1cccc2ccccc12)n1sc(Cl)cc1=O` (centres unmarked) [Cpd 5, 5-chloro-2-(1-naphthalen-1-yl-ethyl)-isothiazol-3-one] are 100% and 600 nM.
Take `O=c1ccsn1Cc1sc2ccccc2c1Cl` [Cpd 8, 2-(3-chloro-benzo[b]thiophen-2-ylmethyl)-isothiazol-3-one]: the inhibition at 5 µM in the test on Neutrophil LTB4 was 74%. Besides, the half-maximal inhibitory concentration (IC50) in test [1] was determined as 1400 nM.
With `O=c1c(Cl)c(Cl)sn1Cc1csc2ccccc12` [Cpd 10, 2-benzo[b]thiophen-3-ylmethyl-4,5-dichloro-isothiazol-3-one], the inhibition at 5 µM in the test on Neutrophil LTB4 came out at 100%. In test [1], the inhibition at 1 µM came to 84%.
For `O=c1cc(Cl)sn1Cc1csc2ccccc12` [Cpd 11, 2-benzo[b]thiophen-3-ylmethyl-5-chloro-isothiazol-3-one], the inhibition at 5 µM with Neutrophil LTB4 is 100%. Also, the inhibition at 1 µM in test [1] is 68%.
Turning to `O=c1ccsn1Cc1csc2ccccc12` [Cpd 12, 2-benzo[b]thiophen-3-ylmethyl-isothiazol-3-one], in the test on Neutrophil LTB4, the inhibition at 5 µM turned out to be 89%. In addition, the concentration for half-maximal inhibition (IC50) in test [1] stood at 750 nM.
For `O=c1ccsn1Cc1ccc2ccccc2c1` [Cpd 13, 2-naphthalen-2-ylmethyl-isothiazol-3-one], in the test on Neutrophil LTB4, the inhibition at 5 µM came out at 78%. The IC50 in test [1] came out at 1300 nM.
On to `O=c1cc(Cl)sn1Cc1ccc2ccccc2c1` [Cpd 14, 5-chloro-2-naphthalen-2-ylmethyl-isothiazol-3-one], for which, in the test with Neutrophil LTB4, the inhibition at 5 µM worked out at 96%. Further, the IC50 in test [1] is 350 nM.
On to `O=c1c(Cl)c(Cl)sn1Cc1ccc2ccccc2c1` [Cpd 15, 4,5-dichloro-2-naphthalen-2-ylmethyl-isothiazol-3-one], for which the inhibition at 5 µM in the test with Neutrophil LTB4 was found to be 75%. Besides, the IC50 in test [1] amounted to 330 nM.
The like results for `O=c1ccsn1Cc1ccc2c(c1)CCO2` [Cpd 17, 2-(2,3-dihydro-benzofuran-5-ylmethyl)-isothiazol-3-one] were, in that order, 39% and 5800 nM.
Turning to `O=c1c(Cl)c(Cl)sn1Cc1csc2ccc(Cl)cc12` [Cpd 18, 4,5-dichloro-2-(5-chloro-benzo[b]thiophen-3-ylmethyl)-isothiazol-3-one], in the test with Neutrophil LTB4, the inhibition at 5 µM was 71%. In addition, the IC50 in test [1] was determined as 280 nM.
As for `O=c1cc(Cl)sn1Cc1csc2ccc(Cl)cc12` [Cpd 19, 5-chloro-2-(5-chloro-benzo[b]thiophen-3-ylmethyl)-isothiazol-3-one], in the test with Neutrophil LTB4, the inhibition at 5 µM was determined as 100%. Also, the half-inhibitory concentration (IC50) in test [1] came out at 1000 nM.
Regarding `O=c1ccsn1Cc1csc2ccc(Cl)cc12` [Cpd 20, 2-(5-chloro-benzo[b]thiophen-3-ylmethyl)-isothiazol-3-one], the inhibition at 5 µM in the test on Neutrophil LTB4 worked out at 88%. Further, the half-inhibitory concentration (IC50) in test [1] is 1000 nM.
The like results for `O=c1ccsn1Cc1ccc(-c2csnn2)cc1` [Cpd 22, 2-(4-[1,2,3]thiadiazol-4-yl-benzyl)-isothiazol-3-one] were, in that order, 50% and 1200 nM.
Turning to `O=c1cc(Cl)sn1Cc1ccc(-c2ccco2)cc1` [Cpd 23, 5-chloro-2-(4-furan-2-yl-benzyl)-isothiazol-3-one], in the test with Neutrophil LTB4, the inhibition at 5 µM is 100%. Moreover, the IC50 in test [1] was 300 nM.
In the same order, the values of `O=c1c(Cl)c(Cl)sn1Cc1ccc(-c2csnn2)cc1` [Cpd 24, 4,5-dichloro-2-(4-[1,2,3]thiadiazol-4-yl-benzyl)-isothiazol-3-one] are 52% and 500 nM.
As to `CC(=O)c1ccc(Cn2sccc2=O)cc1` [Cpd 25, 2-(4-acetylbenzyl)-isothiazol-3-one], the inhibition at 5 µM with Neutrophil LTB4 is 54%. The IC50 in test [1] came to 1000 nM.
As to `C=Cc1ccc(Cn2sc(Cl)cc2=O)cc1` [Cpd 27, 5-chloro-2-(4-vinyl-benzyl)-isothiazol-3-one], in the test with Neutrophil LTB4, the inhibition at 5 µM was found to be 100%. Besides, the half-maximal inhibitory concentration (IC50) in test [1] was determined as 800 nM.
Regarding `O=c1c(Cl)c(Cl)sn1Cc1ccc(C#Cc2cccc(Cl)c2)cc1` [Cpd 28, 4,5-dichloro-2-[4-(3-chlorophenylethynyl)-benzyl]-isothiazol-3-one], the inhibition at 5 µM in the test on Neutrophil LTB4 was 100%. In test [1], the IC50 stood at 3500 nM.
`CS(=O)(=O)c1ccc(Cn2sc(Cl)c(Cl)c2=O)cc1` [Cpd 29, 4,5-dichloro-2-(4-methanesulfonyl-benzyl)-isothiazol-3-one]: the inhibition at 5 µM in the test with Neutrophil LTB4 is 64%. The IC50 in test [1] amounted to 300 nM.
Regarding `CC(c1ccc(S(C)(=O)=O)cc1)n1sc(Cl)c(Cl)c1=O` (centres unmarked) [Cpd 30, 4,5-dichloro-2-[1-(4-methanesulfonyl-phenyl)-ethyl]-isothiazol-3-one], in the test with Neutrophil LTB4, the inhibition at 5 µM came out at 100%. In test [1], the IC50 came to 200 nM.
Consider `Cc1nc(-c2ccc(Cn3sc(Cl)cc3=O)cc2)cs1` [Cpd 31, 5-chloro-2-[4-(2-methyl-thiazol-4-yl)-benzyl]-isothiazol-3-one], for which, in the test on Neutrophil LTB4, the inhibition at 5 µM was 88%. For the same molecule, the inhibition at 1 µM in test [1] amounted to 54%.
Regarding `O=c1cc(Cl)sn1Cc1cccc(-c2csnn2)c1` [Cpd 32, 5-chloro-2-(3-[1,2,3]thiadiazol-4-ylbenzyl)-isothiazol-3-one], the inhibition at 5 µM in the test with Neutrophil LTB4 worked out at 100%. For the same molecule, the IC50 in test [1] was 600 nM.
As to `O=c1c(Cl)c(Cl)sn1C(c1ccccc1)c1ccccn1` (centres unmarked) [Cpd 33, 4,5-dichloro-2-(phenyl-pyridin-2-yl-methyl)-isothiazol-3-one], in the test on Neutrophil LTB4, the inhibition at 5 µM turned out to be 95%. Moreover, the concentration for half-maximal inhibition (IC50) in test [1] stood at 200 nM.
Regarding `O=C(c1ccccc1)c1ccc(Cn2sc(Cl)c(Cl)c2=O)cc1` [Cpd 34, 4,5-dichloro-2-(4-benzoylbenzyl)-isothiazol-3-one], in the test with Neutrophil LTB4, the inhibition at 5 µM was 84%. Further, the IC50 in test [1] amounted to 400 nM.
Turning to `O=C(c1ccccc1)c1ccc(Cn2sc(Cl)cc2=O)cc1` [Cpd 35, 5-chloro-2-(4-benzoylbenzyl)-isothiazol-3-one], the inhibition at 5 µM with Neutrophil LTB4 came out at 100%. In test [1], the IC50 turned out to be 60 nM.
With `O=c1cc(Cl)sn1Cc1ccc(S(=O)(=O)c2ccc(F)cc2)cc1` [Cpd 36, 5-chloro-2-[4-(4-fluoro-benzenesulfonyl)-benzyl]-isothiazol-3-one], the inhibition at 5 µM with Neutrophil LTB4 was 56%. The IC50 in test [1] came out at 500 nM.
In the same order, the values of `COC(=O)c1ccc(Cn2sc(Cl)cc2=O)cc1` [Cpd 37, 4-(5-chloro-3-oxo-3H-isothiazol-2-ylmethyl)-benzoic acid methyl ester] are 95% and 500 nM.
Consider `O=c1cc(Cl)sn1Cc1ccc(S(=O)(=O)c2ccccc2)cc1` [Cpd 38, 5-chloro-2-(4-benzenesulfonyl-benzyl)-isothiazol-3-one], for which, in the test on Neutrophil LTB4, the inhibition at 5 µM came to 93%. Further, in test [1], the IC50 turned out to be 900 nM.
On to `O=c1c(Cl)c(Cl)sn1[C@H]1C[C@@H]1c1ccccc1` [Cpd 39, (1S,2R)-4,5-dichloro-2-(2-phenyl-cyclopropyl)-isothiazol-3-one], for which the inhibition at 5 µM with Neutrophil LTB4 was determined as 94%. For the same molecule, the half-inhibitory concentration (IC50) in test [1] is 200 nM.
For the molecule `C#Cc1ccc(Cn2sc(Cl)cc2=O)cc1` [Cpd 40, 5-chloro-2-(4-ethynyl-benzyl)-isothiazol-3-one], the inhibition at 5 µM with Neutrophil LTB4 is 100%. Moreover, in test [1], the IC50 was found to be 200 nM.
In the case of `CCCCCS(=O)(=O)c1ccc(Cn2sc(Cl)cc2=O)cc1` [Cpd 41, 5-chloro-2-[4-(pentane-1-sulfonyl)-benzyl]-isothiazol-3-one], the inhibition at 5 µM with Neutrophil LTB4 amounted to 100%. Besides, the IC50 in test [1] is 500 nM.
The like results for `O=c1cc(Cl)sn1[C@H]1C[C@@H]1c1ccccc1` [Cpd 42, (1S,2R)-5-chloro-2-(2-phenyl-cyclopropyl)-isothiazol-3-one] were, in that order, 61% and 400 nM.
For `N#Cc1cccc(C#Cc2ccc(Cn3sc(Cl)cc3=O)cc2)c1` [Cpd 43, 3-[4-(5-chloro-3-oxo-3H-isothiazol-2ylmethyl)-phenylethynyl]-benzonitrile], the inhibition at 5 µM in the test on Neutrophil LTB4 is 100%. Also, the IC50 in test [1] stood at 1600 nM.
Take `Cc1nc(-c2cccc(-n3sc(Cl)cc3=O)c2)c(Cl)s1` [Cpd 44, 5-chloro-2-[3-(2-methyl-5-chloro-thiazol-4-yl)-phenyl]-isothiazol-3-one]: in the test with Neutrophil LTB4, the inhibition at 5 µM turned out to be 69%. Moreover, the IC50 in test [1] was 2000 nM.
Take `Cc1nc(-c2cccc(-n3sccc3=O)c2)c(Cl)s1` [Cpd 45, 2-[3-(2-methyl-5-chloro-thiazol-4-yl)-phenyl]-isothiazol-3-one]: in the test with Neutrophil LTB4, the inhibition at 5 µM is 100%. Besides, the IC50 in test [1] was 1800 nM.
For the molecule `Cc1nc(-c2cccc(-n3sccc3=O)c2)cs1` [Cpd 46, 2-[3-(2-methyl-thiazol-4-yl)-phenyl]-isothiazol-3-one], the inhibition at 5 µM with Neutrophil LTB4 amounted to 64%. In addition, in test [1], the IC50 is 1000 nM.
In the same order, the values of `Cc1nc(-c2cccc(-n3sc(Cl)cc3=O)c2)cs1` [Cpd 47, 5-chloro-2-[3-(2-methyl-thiazol-4-yl)-phenyl]-isothiazol-3-one] are 100% and 1000 nM.

Source of the values: patent US20060293374A1, “Substituted isothiazolones” (priority 2005, published 2006).
